# Target: Protein cereblon (Homo sapiens, UniProt Q96SW2)
# Assay: Cereblon (CRBN) Target Engagement
# Description: Cereblon target engagement was monitored by Bioluminescence Resonance Energy Transfer (BRET) in transfected HEK-293T cells using the NanoBRET TE Intracellular E3 Ligase Assay (Promega). Briefly, 384-well plates (white opaque plates, Corning 3574, low binding surface) were seeded with transfected HEK-293T cells (38 uL/well). 2 uL of 10 uM CRBN tracer (diluted 1:5 in Tracer Dilution Buffer) was added to each well. Plates were centrifuged at 320 g for 1 min at room temperature. Test compounds were added in a 11-point dilution series (typically […]) using a TECAN D300e Digital Dispenser. Plates were shaken for 2 minutes on a microplate shaker to mix compounds. Plates were centrifuged at 320 g for 1 min at room temperature, and subsequently incubated for 2 hours at 37 C.After incubation, plates were allowed to cool to room temperature for 15 minutes. 20 uL of 3 Complete NanoBRET Nano-Glo Substrate plus Inhibitor Solution (Promega, 1:166 Substrate and 1:500 dilution of Extracellular NanoLuc Inhibitor diluted in Opti-MEM) were added to each well. Plates were incubated with shaking at room temperature for 3 minutes covered with foil. Plates were read on a CLARIOstar microplate reader (BMG LabTech), measuring at 450 nm (donor emission) and 610 nm (acceptor emission). The IC50 values were determined by regression to best fit four-parameter logistic curves using GraphPad Prism.
# Chain of Protein cereblon (Q96SW2 whole entry): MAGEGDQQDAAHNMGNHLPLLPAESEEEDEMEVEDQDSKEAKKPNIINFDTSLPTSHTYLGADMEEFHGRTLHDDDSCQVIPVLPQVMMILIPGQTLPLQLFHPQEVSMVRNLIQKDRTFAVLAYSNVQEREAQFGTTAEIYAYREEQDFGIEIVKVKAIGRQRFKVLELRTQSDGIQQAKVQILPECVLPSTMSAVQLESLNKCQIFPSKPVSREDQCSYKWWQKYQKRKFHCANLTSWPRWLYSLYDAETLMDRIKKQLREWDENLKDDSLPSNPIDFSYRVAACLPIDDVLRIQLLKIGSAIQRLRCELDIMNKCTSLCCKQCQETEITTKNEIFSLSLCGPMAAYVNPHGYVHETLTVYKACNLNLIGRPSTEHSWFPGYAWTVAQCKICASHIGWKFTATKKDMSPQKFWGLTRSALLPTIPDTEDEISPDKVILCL
row,Structure (SMILES),EC50 [nM]
1,"O=C1NC(=O)C2(N3Cc4cc(O[C@H]5CCC[C@@H]5N5CC(c6ccc(F)cc6Cl)C5)ccc4C3=O)CC1C2 [US20240246935, Example 86]",> 10000
2,"O=C1NC(=O)C2(N3Cc4cc(O[C@H]5CCC[C@@H]5N5CC(c6cccc(F)c6)C5)ccc4C3=O)CC1C2 [US20240246935, Example 87]",> 10000
3,"O=C1CCC(N2Cc3cc(O[C@H]4CCC[C@@H]4N4CC(c5cccc(F)c5)C4)ccc3C2=O)C(=O)N1 (some centres not stated) [US20240246935, Example 88]",30.2
4,"O=C1NC(=O)C2(N3Cc4cc(O[C@H]5CCCC[C@@H]5N5CC(c6cccc(F)c6)C5)ccc4C3=O)CC1C2 [US20240246935, Example 89]",6810
5,"O=C1CCC(N2Cc3cc(O[C@H]4CCCC[C@@H]4N4CC(c5ccc(F)cc5Cl)C4)ccc3C2=O)C(=O)N1 (some centres not stated) [US20240246935, Example 103]",15
6,"O=C1CCC(N2Cc3cc(O[C@H]4CCC[C@@H]4N4CC(c5ccc(F)cc5Cl)C4)ccc3C2=O)C(=O)N1 (some centres not stated) [US20240246935, Example 104]",18
7,"O=C1NC(=O)C2(N3Cc4cc(O[C@H]5CCC[C@@H]5N5CCC(c6ccccc6)C5)ccc4C3=O)CC1C2 (some centres not stated) [US20240246935, Example 107]",> 10000
